The target in one assay is D2 dopamine receptors (Rattus norvegicus, UniProt P61169). Kind of assay: Inhibition of tritiated (S)-sulpiride binding to D2 dopamine receptors, rat striatal samples. The arrangement: species or system rat (male Charles River CD rats). The note with it: rat striatum, pH 7.7, 4° C., 40 minutes. On the procedure: (§1) Striatal samples from the brains of male Charles River CD rats weighing between 140-250 g were homogenised in ice-cold 50 mM Tris-HCl buffer (pH 7.4 when measured at 25° C. for D1 binding assays and pH 7.7 when measured at 25° C. for D2 binding assays) and centrifuged for 10 minutes (at 21,000 g when used for D1 binding assay and 40,000 g when used for D2 binding assays). The pellet was resuspended in the same buffer, again centrifuged and the final pellet stored at -80° C. Before each test the pellet was resuspended in 50 mM Tris-HCl buffer containing 120 mM NaCl, 5 mM KCl, 2 mM CaCl2 and 1 mM MgCl2 at pH 7.4 for the D1 binding assays and at pH 7.7 with the addition of 6 mM ascorbic acid for the D2 binding assays. Aliquots of this suspension were then added to tubes containing the ligand and either the compound under test or buffer. For the D1 binding assays the ligand was tritiated SCH 23390 and the mixture was incubated at 37° C. for 30 minutes before the incubation was terminated by rapid filtration. For the D2 binding assays the ligand was tritiated (S)-sulpiride and the mixture was incubated at 4° C. for 40 minutes before the incubation was terminated by rapid filtration. Non-specific binding was determined experimentally by the addition of saturating concentrations of chloropromazine or spiroperidol for D1 and D2 receptors respectively.
(§2) The filters were washed with ice-cold Tris-HCl buffer and dried. The filters were punched out into vials containing scintillation fluid and were left for about 20 hours before being counted by scintillation spectrophotometry. Competition binding curves were produced over a range of concentrations of the compound under test and the inhibition coefficient Ki was derived from the data by use of the non-linear curve fitting computer programe EBDA (Biosoft).

For the next assay, the target named is D1 dopamine receptors (Rattus norvegicus, UniProt P18901). Description: Inhibition of tritiated SCH 23390 binding to D1 dopamine receptors, rat striatal samples. The arrangement: species or system rat (male Charles River CD rats). Conditions: for Ki: rat striatum, tritiated SCH 23390, pH 7.4, 37° C., 30 minutes; for Ki for D2 / Ki for D1: ratio between the D2 and D1 Ki values, to two significant figures. The protocol: as §1, §2

Structures can show the parent of a compound that is named as a salt.

D2 dopamine receptors, sequence (P61169 whole entry): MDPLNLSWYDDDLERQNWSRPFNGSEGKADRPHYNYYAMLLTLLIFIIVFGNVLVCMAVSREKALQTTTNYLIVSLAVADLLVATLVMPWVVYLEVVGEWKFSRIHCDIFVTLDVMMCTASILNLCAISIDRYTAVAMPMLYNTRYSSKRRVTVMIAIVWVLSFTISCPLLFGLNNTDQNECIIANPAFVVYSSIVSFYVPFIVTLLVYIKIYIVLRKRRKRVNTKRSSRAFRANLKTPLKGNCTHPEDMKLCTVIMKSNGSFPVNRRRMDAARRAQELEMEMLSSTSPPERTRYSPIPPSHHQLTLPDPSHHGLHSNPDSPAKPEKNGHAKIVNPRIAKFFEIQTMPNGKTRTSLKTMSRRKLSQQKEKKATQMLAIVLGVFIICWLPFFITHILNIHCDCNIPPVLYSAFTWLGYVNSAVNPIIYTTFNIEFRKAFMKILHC
D1 dopamine receptors, sequence (P18901 whole entry): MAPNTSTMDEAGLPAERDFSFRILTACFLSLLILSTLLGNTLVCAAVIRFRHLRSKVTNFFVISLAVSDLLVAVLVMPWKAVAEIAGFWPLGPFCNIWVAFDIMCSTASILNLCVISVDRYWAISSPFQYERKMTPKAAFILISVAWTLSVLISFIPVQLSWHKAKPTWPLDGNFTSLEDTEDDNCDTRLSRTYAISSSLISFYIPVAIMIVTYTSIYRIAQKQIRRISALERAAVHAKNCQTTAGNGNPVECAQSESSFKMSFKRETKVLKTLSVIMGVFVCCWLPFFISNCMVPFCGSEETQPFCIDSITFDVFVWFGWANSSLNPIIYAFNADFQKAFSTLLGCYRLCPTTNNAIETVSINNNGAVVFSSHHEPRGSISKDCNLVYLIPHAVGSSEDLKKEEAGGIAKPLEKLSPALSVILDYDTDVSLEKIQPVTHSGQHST

Regarding `Cc1cc2c(cc1O)C(C1(C3CCCc4ccccc43)CC1)N(C)CC2` (stereo not drawn) [Example 4, 7-hydroxy-2,6-dimethyl-1-[1-(1,2,3,4-tetrahydronaphth-1-yl)cyclopropyl]-1,2,3,4-tetrahydroisoquinoline 1.05 hydrochloride 0.7 hydrate], the Ki at D2 dopamine receptors was determined as 190 nM. Moreover, on D1 dopamine receptors, the Ki worked out at 6.7 nM and the “Ki for D2 / Ki for D1” value came to 28.
The like results for `Cc1cc2c(cc1O)C(C1(CC3CCCC3)CC1)N(C)CC2` (stereo not drawn) [Example 2, 1-[1-(cyclopentylmethyl)cyclopropyl]-7-hydroxy-2,6-dimethyl-1,2,3,4-tetrahydroisoquinoline] were, in that order, 2300 nM, 7.9 nM and 290.
The matching figures for `Cc1cc2c(cc1O)C(C1(c3ccccn3)CC1)N(C)CC2` (stereo not drawn) [Example 11, 7-hydroxy-2,6-dimethyl-1-[1-(2-pyridyl)cyclopropyl]-1,2,3,4-tetrahydroisoquinoline]: 1100 nM, 140 nM and 79.
The like results for `Cc1cc2c(cc1O)C(C1(c3ccco3)CC1)N(C)CC2.O=C(O)/C=C\C(=O)O` (stereo not drawn) [Example 9, 1-[1-(2-furyl)cyclopropyl]-7-hydroxy-2,6-dimethyl-1,2,3,4-tetrahydroisoquinoline maleate] were, in that order, 8900 nM, 40 nM and 220.
For the molecule `Cc1cc2c(cc1O)C(C1(c3ccsc3)CC1)N(C)CC2` (single isomer, unassigned; (-)) [Example 7, (-)-7-hydroxy-2,6-dimethyl-1-[1-(3-thienyl)cyclopropyl]-1,2,3,4-tetrahydroisoquinoline hydrochloride 0.8 hydrate], affinity on D2 dopamine receptors was put at a Ki of 8500 nM. Moreover, on D1 dopamine receptors, the Ki came to 4.2 nM and the “Ki for D2 / Ki for D1” value amounted to 2000.
The matching figures for `Br.Cc1cc2c(cc1O)C(C1(c3cccs3)CC1)N(C)CC2` (stereo not drawn) [Example 5, 7-hydroxy-2,6-dimethyl-1-[1-(2-thienyl)cyclopropyl]-1,2,3,4-tetrahydroisoquinoline hydrobromide]: 3000 nM, 32 nM and 94.
For `Cc1cc2c(cc1O)C(C1(c3ccsc3)CC1)N(C)CC2.O=C(O)C(=O)O` (single isomer, unassigned; (-)) [Example 6, (-)-7-hydroxy-2,6-dimethyl-1-[1-(3-thienyl)cyclopropyl]-1,2,3,4-tetrahydroisoquinoline oxalate], the Ki at D2 dopamine receptors was found to be 4900 nM; at D1 dopamine receptors it was 2.1 nM. For the same molecule, the “Ki for D2 / Ki for D1” value at D1 dopamine receptors is 2300.
On to `CN1CCc2ccc(O)cc2C1C1(c2ccccn2)CCC1.O=C(O)C(=O)O` (stereo not drawn) [Example 10, 7-hydroxy-2-methyl-1-[1-(2-pyridyl)cyclobutyl]-1,2,3,4-tetrahydroisoquinoline oxalate], for which the Ki at D2 dopamine receptors was found to be 7000 nM. At D1 dopamine receptors, the Ki is 160 nM and the “Ki for D2 / Ki for D1” value amounted to 44.
The like results for `Cc1cc2c(cc1O)C(C1(C3C=CCCC3)CCC1)N(C)CC2.O=C(O)C(=O)O` (stereo not drawn) [Example 3, 1-[1-(cyclohex-1-en-3-yl)cyclobutyl]-7-hydroxy-2,6-dimethyl-1,2,3,4-tetrahydroisoquinoline oxalate] were, in that order, 9500 nM, 77 nM and 120.
Molecule `Br.CC(C)CC1(C2c3cc(O)ccc3CCN2C)CCC1` (stereo not drawn) [Example 1, 7-hydroxy-2-methyl-1-[1-(2-methylpropyl)cyclobutyl]-1,2,3,4-tetrahydroisoquinoline hydrobromide] had a Ki on D2 dopamine receptors of 25000 nM. Further, at D1 dopamine receptors, the Ki turned out to be 370 nM and the “Ki for D2 / Ki for D1” value amounted to 68.
At D2 dopamine receptors, `Br.Cc1cc2c(cc1O)C(C1(c3ccsc3)CC1)N(C)CC2` (racemic) [Example 8, (±)-7-hydroxy-2,6-dimethyl-1-[1-(3-thienyl)cyclopropyl]-1,2,3,4-tetrahydroisoquinoline hydrobromide] gave a Ki of 1300 nM. Besides, at D1 dopamine receptors, the affinity corresponds to a Ki of 5.9 nM and the “Ki for D2 / Ki for D1” value amounted to 220.

For the origin of these results see US5807868A, “Isoquinoline derivatives as therapeutic agents” (Knoll Aktiengesellschaft, priority 1993, dated 1998).
